Several values for one entry are separate records, joined by “and”; a condition that tells them apart may be missing. Equal values may be shown once. Toxic doses and inconclusive results are not listed. Cut-off read from the data, not from the text of the source: active = T/C of 150% or more; inactive = T/C below 125%.
Test system: L1210 leukemia ip in BDF1 mice, survival T/C
Assay: NCI In Vivo Anticancer Drug Screen. Data for tumor model L1210 Leukemia (intraperitoneal) in B6D2F1 (BDF1) mice
Settings: endpoint: mean survival time, higher = longer survival
Method in brief: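 Transplanted-tumor mice were given test agent; controls received vehicle only. Survival readings from the two groups were divided (treated over control).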

[1] = dose: 100.0 mg/kg/injection, schedule: Q01DX001 (ip), vehicle: saline
[2] = dose: 100.0 mg/kg/injection, schedule: Q01DX009 (ip), vehicle: saline
[3] = dose: 200.0 mg/kg/injection, schedule: Q01DX001 (ip), vehicle: saline
[4] = dose: 200.0 mg/kg/injection, schedule: Q01DX009 (ip), vehicle: saline
[5] = dose: 100.0 mg/kg/injection, schedule: Q04DX003 (ip), vehicle: saline with Tween-80
[6] = dose: 200.0 mg/kg/injection, schedule: Q04DX003 (ip), vehicle: saline with Tween-80
[7] = dose: 400.0 mg/kg/injection, schedule: Q04DX003 (ip), vehicle: saline with Tween-80
[8] = dose: 100.0 mg/kg/injection, schedule: Q04DX003 (ip), vehicle: Klucel (hydroxypropylcellulose) (HPC)
[9] = dose: 200.0 mg/kg/injection, schedule: Q04DX003 (ip), vehicle: Klucel (hydroxypropylcellulose) (HPC)
[10] = dose: 400.0 mg/kg/injection, schedule: Q04DX003 (ip), vehicle: Klucel (hydroxypropylcellulose) (HPC)
[11] = dose: 100.0 mg/kg/injection, schedule: Q01DX001 (ip), vehicle: carboxymethylcellulose (CMC)
[12] = dose: 200.0 mg/kg/injection, schedule: Q01DX001 (ip), vehicle: carboxymethylcellulose (CMC)
[13] = dose: 400.0 mg/kg/injection, schedule: Q01DX001 (ip), vehicle: carboxymethylcellulose (CMC)
[14] = dose: 100.0 mg/kg/injection, schedule: Q01DX009 (ip), vehicle: saline with Tween-80
[15] = dose: 200.0 mg/kg/injection, schedule: Q01DX009 (ip), vehicle: saline with Tween-80

Measured: T/C

O=C(O)CCC(=O)O
inactive: dose: 10.0 mg/kg/injection, schedule: Q01DX009 (ip), vehicle: saline 103 % of control and 101 % of control | dose: 20.0 mg/kg/injection, schedule: Q01DX009 (ip), vehicle: saline 100 % of control and 103 % of control | dose: 31.25 mg/kg/injection, schedule: Q01DX015 (ip), vehicle: water 96 % of control | dose: 40.0 mg/kg/injection, schedule: Q01DX009 (ip), vehicle: saline 97 % of control | dose: 62.5 mg/kg/injection, schedule: Q01DX015 (ip), vehicle: water 89 % of control | dose: 62.5 mg/kg/injection, schedule: Q01DX Z (ip), vehicle: water 95 % of control and 91 % of control | dose: 80.0 mg/kg/injection, schedule: Q01DX009 (ip), vehicle: saline 97 % of control and 99 % of control | [1] 96 % of control | [2] 97 % of control and 102 % of control and 92 % of control | dose: 125.0 mg/kg/injection, schedule: Q01DX015 (ip), vehicle: water 96 % of control and 87 % of control | dose: 125.0 mg/kg/injection, schedule: Q01DX Z (ip), vehicle: water 91 % of control and 88 % of control | dose: 160.0 mg/kg/injection, schedule: Q01DX009 (ip), vehicle: saline 93 % of control and 99 % of control | [3] 102 % of control | [4] 94 % of control and 97 % of control and 105 % of control | dose: 250.0 mg/kg/injection, schedule: Q01DX001 (ip), vehicle: water 100 % of control and 91 % of control | dose: 250.0 mg/kg/injection, schedule: Q01DX015 (ip), vehicle: water 93 % of control | dose: 250.0 mg/kg/injection, schedule: Q01DX Z (ip), vehicle: water 94 % of control and 100 % of control | dose: 400.0 mg/kg/injection, schedule: Q01DX001 (ip), vehicle: saline 107 % of control | dose: 400.0 mg/kg/injection, schedule: Q01DX009 (ip), vehicle: saline 105 % of control | dose: 500.0 mg/kg/injection, schedule: Q01DX001 (ip), vehicle: water 100 % of control | dose: 500.0 mg/kg/injection, schedule: Q01DX Z (ip), vehicle: water 94 % of control and 101 % of control

COc1cc(C)c(NC(=O)Oc2ccccc2)c(C)c1
inactive: [5] 89 % of control | [6] 91 % of control | [7] 91 % of control

O=C(O)c1cc2ccc3ccccc3c2s1
inactive: [1] 87 % of control | [3] 88 % of control

COc1ccc(NC(=O)c2ccc(Cl)cc2Cl)cc1
inactive: dose: 100.0 mg/kg/injection, schedule: Q04DX002 (ip), vehicle: Klucel (hydroxypropylcellulose) (HPC) 111 % of control | dose: 200.0 mg/kg/injection, schedule: Q04DX002 (ip), vehicle: Klucel (hydroxypropylcellulose) (HPC) 104 % of control | dose: 400.0 mg/kg/injection, schedule: Q04DX002 (ip), vehicle: Klucel (hydroxypropylcellulose) (HPC) 101 % of control

CS(=O)(=O)OC1C(OCc2ccccc2)OC(COCc2ccccc2)C(OC2OC(COCc3ccccc3)C(OCc3ccccc3)C(OCc3ccccc3)C2OCc2ccccc2)C1OCc1ccccc1 (stereo unspecified)
inactive: dose: 50.0 mg/kg/injection, schedule: Q04DX003 (ip), vehicle: Klucel (hydroxypropylcellulose) (HPC) 93 % of control | [8] 93 % of control | [9] 97 % of control | [10] 93 % of control

CCOC(=O)C1(C#N)C(=O)CSC1=Nc1ccccc1Cl (stereo unspecified)
inactive: dose: 100.0 mg/kg/injection, schedule: Q04DX002 (ip), vehicle: saline with Tween-80 95 % of control | dose: 200.0 mg/kg/injection, schedule: Q04DX002 (ip), vehicle: saline with Tween-80 102 % of control | dose: 400.0 mg/kg/injection, schedule: Q04DX002 (ip), vehicle: saline with Tween-80 95 % of control

Cc1cc(C)c2nc(N)sc2c1
inactive: [5] 94 % of control

CC(C)=C1C2CCC1NN2
inactive: dose: 50.0 mg/kg/injection, schedule: Q01DX001 (ip), vehicle: Klucel (hydroxypropylcellulose) (HPC) 108 % of control

CC(CO)CCC(O)C(C)C1CCC2C3CCC4CC(O)CCC4(C)C3CCC12C (stereo unspecified)
inactive: dose: 6.25 mg/kg/injection, schedule: Q01DX001 (ip), vehicle: saline with Tween-80 91 % of control | dose: 12.5 mg/kg/injection, schedule: Q01DX001 (ip), vehicle: saline with Tween-80 91 % of control | dose: 25.0 mg/kg/injection, schedule: Q01DX001 (ip), vehicle: saline with Tween-80 90 % of control | dose: 100.0 mg/kg/injection, schedule: Q01DX001 (ip), vehicle: saline with Tween-80 92 % of control | dose: 400.0 mg/kg/injection, schedule: Q01DX001 (ip), vehicle: saline with Tween-80 92 % of control

CC(C)(C)C1=CC(C)([N+](=O)[O-])C=C(C(C)(C)C)C1=O
inactive: [11] 88 % of control | [12] 89 % of control | [13] 88 % of control

NC(=O)CSc1cc(Cl)c(Cl)cc1Cl
inactive: dose: 50.0 mg/kg/injection, schedule: Q04DX003 (ip), vehicle: saline with Tween-80 103 % of control | [5] 106 % of control | [6] 90 % of control

CCCC(Cl)C(=O)Nc1cccc(O)c1 (stereo unspecified)
inactive: [14] 91 % of control | [15] 91 % of control

CCCCCCC(=O)C1C(c2ccc(N(C)C)cc2)CC(=O)C(CCCCC)C1c1ccc(N(C)C)cc1 (stereo unspecified)
inactive: [14] 86 % of control | [5] 89 % of control | [15] 95 % of control | [6] 90 % of control | dose: 400.0 mg/kg/injection, schedule: Q01DX009 (ip), vehicle: saline with Tween-80 95 % of control | [7] 92 % of control

CCOC(=O)COC
inactive: dose: 50.0 mg/kg/injection, schedule: Q01DX009 (ip), vehicle: saline 100 % of control | [2] 96 % of control | [4] 89 % of control

Cc1ccc(NC(=O)C(Cl)(Cl)Cl)cc1C
inactive: [8] 93 % of control | [9] 101 % of control | [10] 90 % of control

O=CNc1cccc2c1-c1ccccc1C2=O
inactive: [11] 96 % of control | [12] 91 % of control | [13] 99 % of control

CC12CCC(Cl)(CC1)CC2=O
inactive: dose: 100.0 mg/kg/injection, schedule: Q04DX002 (ip), vehicle: saline 95 % of control | dose: 200.0 mg/kg/injection, schedule: Q04DX002 (ip), vehicle: saline 95 % of control | dose: 400.0 mg/kg/injection, schedule: Q04DX002 (ip), vehicle: saline 98 % of control

O=C1Nc2ccccc2C1=Nc1cccc2ncccc12
inactive: dose: 100.0 mg/kg/injection, schedule: Q01DX001 (ip), vehicle: acetone 97 % of control | dose: 200.0 mg/kg/injection, schedule: Q01DX001 (ip), vehicle: acetone 93 % of control | dose: 400.0 mg/kg/injection, schedule: Q01DX001 (ip), vehicle: acetone 100 % of control

CCCN1CC(Br)C(=O)NC1=O (stereo unspecified)
inactive: dose: 100.0 mg/kg/injection, schedule: Q01DX Z (ip), vehicle: methylcellulose (MC) 90 % of control

N/N=C\C=N\N
inactive: dose: 15.0 mg/kg/injection, schedule: Q01DX Z (ip), vehicle: saline 107 % of control | dose: 30.0 mg/kg/injection, schedule: Q01DX Z (ip), vehicle: saline 107 % of control | dose: 60.0 mg/kg/injection, schedule: Q01DX Z (ip), vehicle: saline 107 % of control

Source: PubChem BioAssay AID248 (DTP/NCI, 2004)
